Values of other authors in patent US20100303937A1, “NOVEL COMPOSITION TO INCREASE TESTOSTERONE LEVELS” (priority 2009, published 2010).

Conditions: humans; prior art U.S. Pat. No. 5,880,117

Structure (SMILES): C[C@]12CC[C@H]3[C@@H](CCC4=C[C@@H](O)CC[C@@]43C)[C@@H]1CC[C@@H]2O [4-androstene-3β, 17β-diol]
- time within which concentration peaks after administration: ≤ 90 min
